19 compounds from US20250205344A1, “2,4-DIOXOTETRAHYDROPYRIMIDINYL DERATIVES AS DEGRONS IN PROTACS” (GLAXOSMITHKLINE INTELLECTUAL PROPERTY DEVELOPMENT LIMITED, priority 2022, published 2025) can be followed below.

Structures can show the parent of a compound that is named as a salt.

The target of this assay is T1, Androgen Receptor (Homo sapiens, UniProt P10275, T878A).
T1 construct: the AR gene was modified, using CRISPR/Cas9 editing, so the expressed AR protein included an 11 amino acid HiBiT tag; endogenous in cells; host or cells: clonal LnCaP-derived line, AR gene edited by CRISPR/Cas9
T1 sequence (P10275 whole entry T878A): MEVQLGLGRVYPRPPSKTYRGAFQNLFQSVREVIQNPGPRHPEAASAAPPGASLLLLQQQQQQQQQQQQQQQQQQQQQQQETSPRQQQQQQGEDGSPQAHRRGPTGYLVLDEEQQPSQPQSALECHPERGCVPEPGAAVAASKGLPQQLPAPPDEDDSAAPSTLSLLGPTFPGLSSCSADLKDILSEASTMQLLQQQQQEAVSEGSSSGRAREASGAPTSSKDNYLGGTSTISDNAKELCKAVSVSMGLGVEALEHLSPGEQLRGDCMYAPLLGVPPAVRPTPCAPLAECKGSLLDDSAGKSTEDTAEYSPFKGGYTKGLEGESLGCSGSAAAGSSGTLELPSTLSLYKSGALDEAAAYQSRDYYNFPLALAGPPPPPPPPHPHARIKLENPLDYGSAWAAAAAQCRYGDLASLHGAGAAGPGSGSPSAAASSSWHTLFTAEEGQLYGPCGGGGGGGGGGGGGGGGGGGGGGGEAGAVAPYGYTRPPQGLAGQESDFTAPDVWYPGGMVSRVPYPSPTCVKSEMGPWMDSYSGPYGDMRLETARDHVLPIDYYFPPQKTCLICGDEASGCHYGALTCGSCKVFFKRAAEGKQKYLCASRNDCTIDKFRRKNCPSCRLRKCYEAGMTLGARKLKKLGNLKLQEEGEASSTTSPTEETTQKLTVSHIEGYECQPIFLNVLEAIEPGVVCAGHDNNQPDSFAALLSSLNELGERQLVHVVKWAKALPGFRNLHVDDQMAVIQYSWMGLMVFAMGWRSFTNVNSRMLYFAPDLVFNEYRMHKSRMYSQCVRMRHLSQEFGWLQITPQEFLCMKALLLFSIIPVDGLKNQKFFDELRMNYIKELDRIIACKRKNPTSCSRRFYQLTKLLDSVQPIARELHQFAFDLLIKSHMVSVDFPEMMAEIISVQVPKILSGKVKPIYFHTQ
T1 sequence (Q96SW2 whole entry partner): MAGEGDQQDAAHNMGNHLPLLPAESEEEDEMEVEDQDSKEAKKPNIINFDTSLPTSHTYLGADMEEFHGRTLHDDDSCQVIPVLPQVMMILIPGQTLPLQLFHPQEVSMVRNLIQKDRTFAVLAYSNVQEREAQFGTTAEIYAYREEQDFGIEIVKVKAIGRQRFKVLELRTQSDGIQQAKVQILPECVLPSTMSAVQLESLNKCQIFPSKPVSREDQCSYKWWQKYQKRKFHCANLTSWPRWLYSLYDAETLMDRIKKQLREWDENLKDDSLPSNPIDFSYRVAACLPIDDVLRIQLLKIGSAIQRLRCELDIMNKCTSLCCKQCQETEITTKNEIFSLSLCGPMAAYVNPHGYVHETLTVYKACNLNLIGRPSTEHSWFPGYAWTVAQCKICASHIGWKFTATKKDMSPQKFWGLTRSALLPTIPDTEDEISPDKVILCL
T1 sequence (Q16531 whole entry partner): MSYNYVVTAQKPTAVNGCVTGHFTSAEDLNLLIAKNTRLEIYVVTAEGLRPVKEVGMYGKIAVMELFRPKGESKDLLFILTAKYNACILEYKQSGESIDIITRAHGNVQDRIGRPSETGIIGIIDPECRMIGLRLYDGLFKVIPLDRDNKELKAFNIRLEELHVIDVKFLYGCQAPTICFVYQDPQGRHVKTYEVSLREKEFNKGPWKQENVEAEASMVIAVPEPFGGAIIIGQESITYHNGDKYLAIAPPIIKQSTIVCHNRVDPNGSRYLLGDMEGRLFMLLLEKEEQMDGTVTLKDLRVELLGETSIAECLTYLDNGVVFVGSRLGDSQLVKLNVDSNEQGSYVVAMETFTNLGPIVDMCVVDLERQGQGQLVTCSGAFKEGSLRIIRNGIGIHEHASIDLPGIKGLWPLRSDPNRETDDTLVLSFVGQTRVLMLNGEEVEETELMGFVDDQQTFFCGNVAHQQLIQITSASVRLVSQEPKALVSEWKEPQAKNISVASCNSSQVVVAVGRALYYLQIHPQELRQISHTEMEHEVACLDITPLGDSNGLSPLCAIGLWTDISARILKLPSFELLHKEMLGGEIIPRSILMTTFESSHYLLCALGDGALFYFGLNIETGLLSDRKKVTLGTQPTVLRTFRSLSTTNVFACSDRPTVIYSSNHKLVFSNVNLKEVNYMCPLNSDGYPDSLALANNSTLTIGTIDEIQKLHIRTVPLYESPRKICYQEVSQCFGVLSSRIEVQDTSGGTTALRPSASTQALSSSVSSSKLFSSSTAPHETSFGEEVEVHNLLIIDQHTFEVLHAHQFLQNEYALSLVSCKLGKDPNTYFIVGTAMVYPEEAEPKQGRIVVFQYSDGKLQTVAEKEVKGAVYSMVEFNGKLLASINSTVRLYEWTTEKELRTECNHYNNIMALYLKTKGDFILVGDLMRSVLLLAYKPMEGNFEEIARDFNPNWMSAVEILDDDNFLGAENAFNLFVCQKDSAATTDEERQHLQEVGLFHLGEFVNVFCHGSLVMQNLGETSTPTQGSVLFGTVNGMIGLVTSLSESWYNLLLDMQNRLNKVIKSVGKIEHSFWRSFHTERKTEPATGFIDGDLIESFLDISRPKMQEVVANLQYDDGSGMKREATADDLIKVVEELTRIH
Briefly: Androgen Receptor Degradation Assay (Nano-Glo HiBiT). The assay is classed as cell-based. Conditions: LNCaP, 18 h, HiBiT-tagged AR in human LnCaP cells, read-out: mean asymptote max. The method, boiled down: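 LnCaP cells with CRISPR-knocked-in N-terminal HiBiT-tagged AR (10,000/well) treated 18 h at 37 °C with PROTACs over 11 threefold concentrations; lytic HiBiT luminescence normalised to DMSO (0%) and cell-free (100%) controls. Relative DC50 = 4-parameter fit inflection; absolute DC50 = 50% degradation interpolation; Dmax = maximum observed degradation.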

Regarding `CC(C)n1ccc2c(N3CCC(=O)NC3=O)cc(C(=O)N3CCC4(CCCN(Cc5ccc(C(=O)N[C@H]6CC[C@H](Oc7ccc(C#N)c(Cl)c7)CC6)cc5)C4)CC3)cc21` [EAR81, N-((1r,4r)-4-(3-Chloro-4-cyanophenoxy)cyclohexyl)-4-((9-(4-(2,4-dioxotetrahydropyrimidin-1(2H)-yl)-1-isopropyl-1H-indole-6-carbonyl)-2,9-diazaspiro[5.5]undecan-2-yl)methyl)benzamide], the Dmax was not below 50%.

Consider `CC1(C)C(=O)N(c2ccc(C#N)c(C(F)(F)F)c2)C(=S)N1c1ccc(N2CCC(CN3CCC(n4ncc5c(N6CCC(=O)NC6=O)cncc54)CC3)CC2)cc1` [EAR98, 4-(3-(4-(4-((4-(4-(2,4-Dioxotetrahydropyrimidin-1(2H)-yl)-1H-pyrazolo[3,4-c]pyridin-1-yl)piperidin-1-yl)methyl)piperidin-1-yl)phenyl)-4,4-dimethyl-5-oxo-2-thioxoimidazolidin-1-yl)-2-(trifluoromethyl)benzonitrile], for which the Dmax is not below 50%.

As for `CC(C)n1ccc2c(N3CCC(=O)NC3=O)cc(C(=O)N(C)CC3CCN(C4CCN(c5ccc(N6C(=S)N(c7ccc(C#N)c(C(F)(F)F)c7)C(=O)C6(C)C)cc5)CC4)CC3)cc21` [EAR88, N-((1′-(4-(3-(4-Cyano-3-(trifluoromethyl)phenyl)-5,5-dimethyl-4-oxo-2-thioxoimidazolidin-1-yl)phenyl)-[1,4′-bipiperidin]-4-yl)methyl)-4-(2,4-dioxotetrahydropyrimidin-1(2H)-yl)-1-isopropyl-N-methyl-1H-indole-6-carboxamide formate], the Dmax was not below 50%.

Regarding `CC(C)n1ccc2c(N3CCC(=O)NC3=O)cc(C(=O)N3CCN(CC4CCN(c5ccc(C(=O)N[C@H]6CC[C@H](Oc7ccc(C#N)c(Cl)c7)CC6)cn5)CC4)CC3)cc21` [EAR80, N-((1r,4r)-4-(3-Chloro-4-cyanophenoxy)cyclohexyl)-6-(4-((4-(4-(2,4-dioxotetrahydropyrimidin-1(2H)-yl)-1-isopropyl-1H-indole-6-carbonyl)piperazin-1-yl)methyl)piperidin-1-yl)nicotinamide], the Dmax was not below 50%.

For the compound `CC(C)n1ccc2c(N3CCC(=O)NC3=O)cc(C(=O)N3CCN(CCCOc4ccc(C(=O)N[C@H]5CC[C@H](Oc6ccc(C#N)c(Cl)c6)CC5)nc4)CC3)cc21` [EAR59, N-((1r,4r)-4-(3-Chloro-4-cyanophenoxy)cyclohexyl)-5-(3-(4-(4-(2,4-dioxotetrahydropyrimidin-1(2H)-yl)-1-isopropyl-1H-indole-6-carbonyl)piperazin-1-yl)propoxy)picolinamide], the Dmax was not below 50%.

In the case of `N#Cc1ccc(O[C@H]2CC[C@H](NC(=O)c3ccc(OCCCN4CCC(n5ccc6c(N7CCC(=O)NC7=O)cccc65)CC4)cn3)CC2)cc1Cl` [EAR62, N-((1r,4r)-4-(3-Chloro-4-cyanophenoxy)cyclohexyl)-5-(3-(4-(4-(2,4-dioxotetrahydropyrimidin-1(2H)-yl)-1H-indol-1-yl)piperidin-1-yl)propoxy)picolinamide], the Dmax is not below 50%.

Consider `CN(CCCN1CCC(n2ncc3c(N4CCC(=O)NC4=O)cccc32)CC1)c1ccc(C(=O)N[C@H]2CC[C@H](Oc3ccc(C#N)c(Cl)c3)CC2)nn1` [EAR151, N-((1r,4r)-4-(3-Chloro-4-cyanophenoxy)cyclohexyl)-6-((3-(4-(4-(2,4-dioxotetrahydropyrimidin-1(2H)-yl)-1H-indazol-1-yl)piperidin-1-yl)propyl)(methyl)amino)pyridazine-3-carboxamide, formic acid salt], for which the Dmax was not below 50%.

As to `N#Cc1ccc(O[C@H]2CC[C@H](NC(=O)c3cccc(OC4CCN(C(=O)CN5CCC(n6ccc7c(N8CCC(=O)NC8=O)cccc76)CC5)CC4)c3)CC2)cc1Cl` [AR2, N-((1r,4r)-4-(3-Chloro-4-cyanophenoxy)cyclohexyl)-3-((1-(2-(4-(4-(2,4-dioxotetrahydropyrimidin-1(2H)-yl)-1H-indol-1-yl)piperidin-1-yl)acetyl)piperidin-4-yl)oxy)benzamide], the Dmax is not below 50%.

Take `CC(C)n1ccc2c(N3CCC(=O)NC3=O)cc(C(=O)N3CCC4(CCN(CCCc5ccc(C(=O)N[C@H]6CC[C@H](Oc7ccc(C#N)c(Cl)c7)CC6)cc5)CC4)CC3)cc21` [EAR85, N-((1r,4r)-4-(3-Chloro-4-cyanophenoxy)cyclohexyl)-4-(3-(9-(4-(2,4-dioxotetrahydropyrimidin-1(2H)-yl)-1-isopropyl-1H-indole-6-carbonyl)-3,9-diazaspiro[5.5]undecan-3-yl)propyl)benzamide]: the Dmax is not below 50%.

Turning to `N#Cc1ccc(O[C@H]2CC[C@H](NC(=O)c3ccc(N4CC5(CCC5CN5CCC(n6ncc7c(N8CCC(=O)NC8=O)cccc76)CC5)C4)nn3)CC2)cc1Cl` (stereo partly shown) [EAR236, N-((1r,4r)-4-(3-chloro-4-cyanophenoxy)cyclohexyl)-6-(5-((4-(4-(2,4-dioxotetrahydropyrimidin-1(2H)-yl)-1H-indazol-1-yl)piperidin-1-yl)methyl)-2-azaspiro[3.3]heptan-2-yl)pyridazine-3-carboxamide], the Dmax was not below 50%.

As to `N#Cc1ccc(O[C@H]2CC[C@H](NC(=O)c3ccc(N4CCC(CN5CCC(c6ncc7c(N8CCC(=O)NC8=O)cccn67)CC5)CC4)nn3)CC2)cc1Cl` [EAR177, N-((1r,4r)-4-(3-Chloro-4-cyanophenoxy)cyclohexyl)-6-(4-((4-(8-(2,4-dioxotetrahydropyrimidin-1(2H)-yl)imidazo[1,5-a]pyridin-3-yl)piperidin-1-yl)methyl)piperidin-1-yl)pyridazine-3-carboxamide], the Dmax is not below 50%.

For the compound `N#Cc1ccc(O[C@H]2CC[C@H](NC(=O)c3ccc(N4CCC(OCCN5CCC(n6ncc7c(N8CCC(=O)NC8=O)cccc76)CC5)CC4)nn3)CC2)cc1Cl` [EAR231, N-((1r,4r)-4-(3-chloro-4-cyanophenoxy)cyclohexyl)-6-(4-(2-(4-(4-(2,4-dioxotetrahydropyrimidin-1(2H)-yl)-1H-indazol-1-yl)piperidin-1-yl)ethoxy)piperidin-1-yl)pyridazine-3-carboxamide], the Dmax is not below 50%.

Regarding `N#Cc1ccc(O[C@H]2CC[C@H](NC(=O)c3ccc(N4CC5CCC(C4)C5CN4CCC(n5ncc6c(N7CCC(=O)NC7=O)cccc65)CC4)nn3)CC2)cc1Cl` (stereo partly shown) [EAR226, N-((1r,4r)-4-(3-chloro-4-cyanophenoxy)cyclohexyl)-6-(8-((4-(4-(2,4-dioxotetrahydropyrimidin-1(2H)-yl)-1H-indazol-1-yl)piperidin-1-yl)methyl)-3-azabicyclo[3.2.1]octan-3-yl)pyridazine-3-carboxamide], the Dmax was not below 50%.

Take `N#Cc1ccc(O[C@H]2CC[C@H](NC(=O)c3ccc(N4CC5(CCC(CN6CCC(n7ncc8c(N9CCC(=O)NC9=O)cccc87)CC6)CC5)C4)nn3)CC2)cc1Cl` [EAR225, N-((1r,4r)-4-(3-chloro-4-cyanophenoxy)cyclohexyl)-6-(7-((4-(4-(2,4-dioxotetrahydropyrimidin-1(2H)-yl)-1H-indazol-1-yl)piperidin-1-yl)methyl)-2-azaspiro[3.5]nonan-2-yl)pyridazine-3-carboxamide]: the Dmax was not below 50%.

Take `C[C@@H]1CN(c2ccc(C#N)c(Cl)c2)[C@@H](C)CN1C(=O)Nc1ccc(N2CCC(CCN3CCC(n4ccc5c(N6CCC(=O)NC6=O)cccc54)CC3)CC2)nc1` [EAR117, (2R,5S)-4-(3-Chloro-4-cyanopheny)-N-(6-(4-(2-(4-(4-(2,4-dioxotetrahydropyrimidin-1(2H)-yl)-1H-indol-1-yl)piperidin-1-yl)ethyl)piperidin-1-yl)pyridin-3-yl)-2,5-dimethylpiperazine-1-carboxamide]: the Dmax is not below 50%.

Regarding `N#Cc1ccc(O[C@H]2CC[C@H](NC(=O)c3ccc(N4CCOC(CCN5CCC(n6ncc7c(N8CCC(=O)NC8=O)cccc76)CC5)C4)nn3)CC2)cc1Cl` (stereo partly shown) [EAR243, N-((1r,4r)-4-(3-chloro-4-cyanophenoxy)cyclohexyl)-6-(2-(2-(4-(4-(2,4-dioxotetrahydropyrimidin-1(2H)-yl)-1H-indazol-1-yl)piperidin-1-yl)ethyl)morpholino)pyridazine-3-carboxamide], the Dmax was not below 50%.

For the compound `N#Cc1ccc(O[C@H]2CC[C@H](NC(=O)c3ccc(N4CCC(CN5CCC(Cn6ccc7c(N8CCC(=O)NC8=O)cccc76)CC5)CC4)nn3)CC2)cc1Cl` [EAR26, N-((1r,4r)-4-(3-Chloro-4-cyanophenoxy)cyclohexyl)-6-(4-((4-((4-(2,4-dioxotetrahydropyrimidin-1(2H)-yl)-1H-indol-1-yl)methyl)piperidin-1-yl)methyl)piperidin-1-yl)pyridazine-3-carboxamide hydrochloride], the Dmax is not below 50%.

Take `N#Cc1ccc(O[C@H]2CC[C@H](NC(=O)c3cnc(N4CCC(CN5CCC(n6ncc7c(N8CCC(=O)NC8=O)cccc76)CC5)CC4)cn3)CC2)cc1Cl` [EAR39, N-((1r,4r)-4-(3-Chloro-4-cyanophenoxy)cyclohexyl)-5-(4-((4-(4-(2,4-dioxotetrahydropyrimidin-1(2H)-yl)-1H-indazol-1-yl)piperidin-1-yl)methyl)piperidin-1-yl)pyrazine-2-carboxamide hydrochloride]: the Dmax is not below 50%.

In the case of `CC1(CN2CCC(n3ncc4c(N5CCC(=O)NC5=O)cccc43)CC2)CN(c2ccc(C(=O)N[C@H]3CC[C@H](Oc4ccc(C#N)c(Cl)c4)CC3)nn2)C1` [EAR240, N-((1r,4r)-4-(3-chloro-4-cyanophenoxy)cyclohexyl)-6-(3-((4-(4-(2,4-dioxotetrahydropyrimidin-1(2H)-yl)-1H-indazol-1-yl)piperidin-1-yl)methyl)-3-methylazetidin-1-yl)pyridazine-3-carboxamide], the Dmax was not below 50%.
